Data from patent publication US8039501B2, “Synephrine derivatives useful as anti-inflammatory agents” (Universiteit Gent, priority 2005, dated 2011).

Experiments:
[1] = tested on: pE-selectin-Luc (E-selectin promoter); assay: pE-selectin-Luc reporter gene assay in TNF-induced L929sA cells; assay type: cell-based, mouse; conditions: 10 microM; TNF-induced; FIG. 1
From the text: L929sA mouse fibroblast cells were stably transfected with pE-selectine-Luc (also referred to as pELAM-luc) by the calcium phosphate precipitation procedure described by De Bosscher et al. in Proc. Natl. Acad. Sci. USA (1997) 94, 13504-13509. The co-transfected plasmid pPGKβGeobpA, conferring resistance to G418 and expressing constitutive β-galactosidase enzymatic activity, was used as an internal control. L929sA cells were transiently transfected by the DEAE-dextran transfection method described by De Bosscher et al. (cited supra).
Recombinant murine tumor necrosis factor (TNF) was produced according to a method standard in the art. Dexamethasone (hereinafter abbreviated as DEX) commercially available from Sigma, and 2-(4-acetoxyphenyl)-2-chloro-N-methyl-ethylammonium chloride (hereinafter abbreviated as compound A) was synthesized according to Louw et al. in Biochemical Pharmacology (1997) 53, 189-197). A stock solution was prepared in ethanol (for DEX) or DMSO (for both comparative compound A and for the compound of example 6 according to this invention, i.e. 1-[4-(benzoyloxy)phenyl]-2-[(tert-butoxy-carbonyl)-methylamino]ethyl-1H-imidazole-1-carboxylate), aliquoted and stored at −70° C.
Induction was performed in triplicate for each independent experiment, which was carried out at least twice. Induction with DEX, compound A, and for the compound of example 6 according to this invention at 1 μM, 10 μM or respectively any other indicated concentration were performed at −2 hours for a total of 8 hours, while TNF (2000 IU/ml) was added at time point zero and left on the cells for 6 hours. After induction, cells were lysed with a lysis buffer (commercially available from Tropix, Bedford, Massachussets) and samples were assayed according to the manufacturer's instructions (Promega Biotech).
In order to investigate whether the inhibitory effect of compound A or the compound of example 6 according to this invention is directed at the transcriptional level of NF-κB-driven genes, the NF-κB-dependent physiological promoter construct, pE-selectin-Luc stably integrated into L929sA cells, was tested. […] DEX-mediated and compound A-mediated inhibition of TNF-induced gene expression were used as controls (FIG. 1). In the appended figures, NI stands for non-induced (either in presence of solvent controls like ethanol or DMSO).

[2] = MTT test, cell viability of L929sA fibroblasts; assay type: cell-based, murine; conditions: mouse, L929sA fibroblast cells, read-out: Block of L929sA cell viability
Protocol: The MTT test is a standard assay addressing cell toxicity of a compound. It is based on the principle that after 3-4 hours of cell incubation with MTT (3-(4,5-dimethylthiazole-2-yl)-2,5-diphenyl tetrazolium bromide) so-called purple formazan crystals develop in living and early apoptotic cells. Dead cells don't produce formazan crystals.
Different cell lines were tested. Unless indicated differently, A549 human lung epithelial cells (derived from lung carcinoma) and L929sA murine fibroblast cells were cultured in DMEM with 10% FCS, 100 U/ml penicillin and 100 μg/ml streptomycin. Unless indicated differently, the human multiple myeloma cell lines L363, U266 and MM1.S were cultured in RPMI 1640 with Glutamax-I, supplemented with 10% FCS, 100 U/ml penicillin and 100 μg/ml streptomycin. Cells were seeded at 5000 cells/well (for adherent A549 and L929sA cells) or at 10000 cells/well (for the multiple myeloma lines in suspension) in 96 well plates. Cells were incubated in the presence of the respective synephrine compounds or vehicle (EtOH; for control test) in a final volume of 0.2 ml for 24 or 48 hours at 37° C. Subsequently, 20 μl of MTT solution (5 mg/ml in phosphate-buffered saline) was added to each well. After 4 hours incubation at 37° C., 80 μl of the extraction buffer (10% SDS, 0.01 M HCl) was added. After overnight incubation at room temperature, the optical densities at 590 nm were measured. Results are illustrated in FIGS. 2 to 6 and are expressed as percentage of viable cells as compared to vehicle-treated controls.
In a further MTT test, the activity of the synephrine derivatives on the inhibition of cell viability of non-immune cells was measured. […] Tests were performed for 24 hours and for 48 hours. The results are illustrated by FIGS. 5A and 5B for L929 cells, and by FIGS. 6A and 6B for A549 cells. It was observed that CpdA at 10^−5 M blocked cell viability of L929sA and A549 for not more than 10%.

MG63b = assay: Q-PCR gene expression in osteosarcoma cell-line MG63b; assay type: cell-based, human; conditions: 10 μM
Protocol: CpdA was synthesized as described previously. […] They were sacrificed and livers were isolated. […] Gene expression of HPRT was used for normalization. […] Gene expression of HPRT was used for normalization. […] Gene expression of HPRT was used for normalization. Statistical significance was determined by one way anova. […] Gene expression of HPRT was used for normalization. […] Gene expression of HPRT was used for normalization. Statistical significance was determined by one way anova. […] Statistical significance was determined with a Kruskal-Wallis test.

CNCC(Cl)c1ccc(OC(C)=O)cc1.Cl (stereo not shown) [CpdA, 2-(4-acetoxyphenyl)-2-chloro-N-methyl-ethylammonium chloride]
Inhibition of the expression of E-selectin [1]: inhibit the expression of E-selectin
cytotoxicity at 24 h ([2]; 10^−4 M, 24 hours, FIG. 5A): 20%
cytotoxicity at 48 h ([2]; 10^−4 M, 48 hours, FIG. 5B): 60%
cytotoxicity ([2]; 10^−5 M, 24 hours and 48 hours, FIGS. 5A and 5B): ≤ 10%
Expression of OPG (MG63b; 24 hours, FIG. 14B): does not down-regulate the expression of OPG
Expression of cathepsin K (MG63b; 24 hours, FIG. 14B): does not stimulate the expression of cathepsin K
Expression of pro-inflammatory mediators (anti-inflammatory effect) (MG63b; TNF 2000 U/ml 6 hours, FIG. 14A): anti-inflammatory effect
